Measured values: patent publication US6218369A, “Pharmaceutical compositions containing flavanolignanes and methods for using same as an antiproliferative” (Indena S.p.A., priority 1995, dated 2001)
Where two headings read alike, the source gives them in different places. Blank lines part the entries; values can stand above or below the molecule they belong to.

Legend:
[1] = tested on: MCF-7 ADRr line; experiment: synergistic antiproliferative effect of a combination of ADR and silybin (isobolic method); type: cell-based, human
Protocol: (§1) The determination of the binding to the estrogen receptor has been carried out on cells of ovary tumor or of other organ tumors, cultured in monolayers using as medium the Dulbecco Modified Medium added with calf serum and with 200 unities/ml of penicillin. The cells used for the tests have been trypsinated every week and placed on a plate at a […] density and incubated at 37° C. under air atmosphere containing 5% CO2 and humidity. […] After 24 hours the medium is substituted with fresh medium and the flavanolignanes dissolved in absolute ethanol are added. […] The treatment described above is repeated at 24 hour intervals during the 72 hours of the test time. The inhibition of the cell proliferation is evaluated by direct count of the cells, comparing the growth of the controls versus that of the treated samples.
(§2) The inhibition on cell proliferation is evaluated by direct count of the cells, comparing the growth of controls versus that of the treated ones.
(§3) In order to verify wether such an effect of a combination of silybin with adriamycin or cisplatin is due to a synergistic or an additive action, the data have been analyzed with the isobolic method by Berenbau (Adv. Cancer Res., 25, 269, 1981).

[2] = tested on: A2780 WT cell line; experiment: synergistic antiproliferative effect of the CIS-silybin combination (isobolic method); type: cell-based, human
Protocol: (§4) The determination of the binding to the estrogen receptor has been carried out on cells of ovary tumor or of other organ tumors, cultured in monolayers using as medium the Dulbecco Modified Medium added with calf serum and with 200 unities/ml of penicillin. The cells used for the tests have been trypsinated every week and placed on a plate at a […] density and incubated at 37° C. under air atmosphere containing 5% CO2 and humidity. […] After 24 hours the medium is substituted with fresh medium and the flavanolignanes dissolved in absolute ethanol are added. The controls are treated in the same experimental conditions only with the vehicle in the absence of the active ingredient. The treatment described above is repeated at 24 hour intervals during the 72 hours of the test time. The inhibition of the cell proliferation is evaluated by direct count of the cells, comparing the growth of the controls versus that of the treated samples.
as §2
As reported in Table III, when silybin is used in combination with CIS, a synergistic inhibition effect on the growth is observed, compared with corresponding doses of the medicaments used alone.
as §3

[3] = tested on: tumors implanted in the nude athymic mouse; experiment: inhibition of growth of tumors implanted in nude athymic mouse; conditions: test not specified (follows in vivo mouse and man results)
Protocol: Moreover, the above flavanolignanes were evidenced to inhibit in vivo the cell proliferation, by measuring the size of tumors implanted in the nude athymic mouse according to the conventional conditions of literature. The treatment of the animals at doses from 1 to 100 mg/Kg evidenced a marked regression of the studied tumors until their disappearance in a high percentage of individuals.
In the in vitro tests flavanolignanes have been used as such, whereas in in vivo tests the complexes thereof with phospholipids, described in EP-A-0209038, have been used.

[4] = tested on: A2780 WT cells; experiment: antiproliferative effect on A2780 WT ovary carcinoma cells (direct cell count); type: cell-based, human; conditions: for IC50: Homo sapiens
Protocol: as §1, with “samples. The inhibition on cell proliferation is evaluated by direct count of the cells, comparing the growth of controls versus that of the treated ones. […] The results are the average of two experiments carried out in triplicated.” for “samples.”

[5] = target: estrogen receptors of type II; conditions: read-out: dissociation affinity constant KD; cited from earlier work
[6] = tested on: human leukemia cells; conditions: cited from earlier work
[7] = tested on: other cell lines; conditions: cited from earlier work
[8] = tested on: MCF-7 ADRr cells; experiment: antiproliferative effect on MCF-7 ADRr (ADR resistant) breast carcinoma cells; type: cell-based; conditions: Homo sapiens, MCF7, breast ca ADR resistant, exposure 72 h
Protocol: as §4, §2

[9] = tested on: OVCA-433 cells; experiment: antiproliferative effect on OVCA-433 ovary carcinoma cells; type: cell-based; conditions: Homo sapiens, OVCA433; OVCA-433, ovary ca, exposure 72 h
Protocol: as §4, §2

[10] = tested on: A2780 CIS cells; experiment: antiproliferative effect on A2780 CIS (CIS resistant) ovary carcinoma cells; type: cell-based; conditions: Homo sapiens, A2780cis, ovary ca CIS resistant, exposure 72 h
Protocol: as §4, §2

[11] = tested on: A2780 WT cells; experiment: cytofluorimetric analysis of cell cycle phase distribution; type: cell-based, human
Protocol: *A2780 WT cells were cultured for 2 days with or without 10 μM silybin.

[12] = tested on: human tumor primary cultures; experiment: antiproliferative activity on human tumor primary cultures; type: cell-based
Description: A plurality of the tested flavanolignanes have a similar behaviour. In Table V, the data relating to silybin, silidianin, silymarin and dehydrosilybin are reported. The diastereomeric forms of silybin and isosilybin are as well active in these tests.

[13] = tested on: different stabilized cell lines, including MCF-7 ADRr, A2780 CIS; experiment: antiproliferative effect on different stabilized cell lines (overall statement); type: cell-based, human
Description: In order to verify the antiproliferative effect of flavanolignanes, the growth curves of different stabilized cell lines deriving from various human tumors have been examined in the presence of the compounds and their capability to interact with the Type II EBS in ovary carcinoma samples has been evaluated.
as §4, §2

[14] = isoeffective with ADR 0.1 μg/ml + silybin 0.1 μM (80% of control)
[15] = isoeffective with ADR 0.5 μg/ml + silybin 0.1 μM (76% of control)
[16] = isoeffective with ADR 1 μg/ml + silybin 0.1 μM (69% of control)
[17] = isoeffective with ADR 2.5 μg/ml + silybin 0.1 μM (62% of control)
[18] = isoeffective with ADR 5 μg/ml + silybin 0.1 μM (47% of control)
[19] = isoeffective with ADR 10 μg/ml + silybin 0.1 μM (39% of control)
[20] = isoeffective with CIS 0.1 μg/ml + silybin 0.1 μM (67% control)
[21] = isoeffective with CIS 0.1 μg/ml + silybin 1 μM (54% control)
[22] = isoeffective with CIS 0.25 μg/ml + silybin 0.1 μM (58% control)
[23] = isoeffective with CIS 0.25 μg/ml + silybin 1 μM (35% control)
[24] = isoeffective with CIS 0.5 μg/ml + silybin 0.1 μM (37% control)
[25] = isoeffective with CIS 0.5 μg/ml + silybin 1 μM (25% control)
[26] = isoeffective with CIS 1 μg/ml + silybin 0.1 μM (18% control)
[27] = isoeffective with CIS 1 μg/ml + silybin 1 μM (12% control)
[28] = A2780 WT, ovary ca, exposure 72 h, read-out: IC50

SMILES: COc1cccc2c1C(=O)c1c(O)c3c(c(O)c1C2=O)C[C@@](O)(C(=O)CO)C[C@@H]3O[C@H]1C[C@H](N)[C@H](O)[C@H](C)O1 [ADR, adriamycin, reference compound]
ADR (isoeffective dose alone) [1, 14]: 0.6 μM/ml
ADR (isoeffective dose alone) [1, 15]: 0.9 μM/ml
ADR (isoeffective dose alone) [1, 16]: 2.5 μM/ml
ADR (isoeffective dose alone) [1, 17]: 5.4 μM/ml
ADR (isoeffective dose alone) [1, 18]: > 10 μM/ml
ADR (isoeffective dose alone) [1, 19]: > 10 μM/ml

SMILES: N.N.[Cl][Pt][Cl] [CIS, cisplatin, reference compound]
CIS (isoeffective dose alone) [2, 20]: 0.23 µg/mL
CIS (isoeffective dose alone) [2, 21]: 0.34 µg/mL
CIS (isoeffective dose alone) [2, 22]: 0.31 µg/mL
CIS (isoeffective dose alone) [2, 23]: 0.56 µg/mL
CIS (isoeffective dose alone) [2, 24]: 0.54 µg/mL
CIS (isoeffective dose alone) [2, 25]: 0.82 µg/mL
CIS (isoeffective dose alone) [2, 26]: > 1 µg/mL
CIS (isoeffective dose alone) [2, 27]: > 1 µg/mL

SMILES: COc1cc(C2Oc3cc(-c4oc5cc(O)cc(O)c5c(=O)c4O)ccc3OC2CO)ccc1O (stereo not shown) [dehydrosilybin]
activity [3]: particularly marked activity
IC50 ([4]; A2780, 72 h): 2.88 µM

SMILES: C[C@]12CC[C@@H]3c4ccc(O)cc4CC[C@H]3[C@@H]1CC[C@@H]2O [estradiol]
Kd [5]: 0.01 to 0.02 µM

SMILES: COc1cc(C2Oc3ccc(C4Oc5cc(O)cc(O)c5C(=O)C4O)cc3OC2CO)ccc1O (stereo not shown) [isosilybin]
activity in these tests ([4]; diastereomeric forms, growth tests of Table V): active

SMILES: O=c1c(O)c(-c2ccc(O)c(O)c2)oc2cc(O)cc(O)c12 [quercetin]
inhibiting activity on proliferation [6]: some inhibiting activity
activity with the usual chemotherapeuticals [7]: synergistic activity
inhibiting activity on proliferation ([7]; other cell lines): some inhibiting activity

IC50 [4, 28]: 12 µM
SMILES: COc1cc(C2C3C=C([C@H]4Oc5cc(O)cc(O)c5C(=O)[C@@H]4O)C4C2COC4(O)C3=O)ccc1O (stereo partly shown) [silidianin]
activity [3]: particularly marked activity

IC50 [8]: 24 µM
IC50 [9]: 4.8 µM
IC50 [10]: 14 µM
IC50 ([13]; Homo sapiens, different cell lines, silybin 0.01 μM to 20 μM, read-out: IC50 (range over cell lines)): 4.8 to 24 µM
IC50 [4, 28]: 12 µM
SMILES: COc1cc(C2Oc3cc(C4Oc5cc(O)cc(O)c5C(=O)C4O)ccc3OC2CO)ccc1O (stereo not shown) [silybin]
Silybin (isoeffective dose alone) [2, 20]: 2.9 µM
Silybin (isoeffective dose alone) [2, 21]: 8.2 µM
Silybin (isoeffective dose alone) [2, 22]: 6.4 µM
Silybin (isoeffective dose alone) [2, 23]: > 50 µM
Silybin (isoeffective dose alone) [2, 24]: > 50 µM
Silybin (isoeffective dose alone) [2, 25]: > 50 µM
Silybin (isoeffective dose alone) [2, 26]: > 50 µM
Silybin (isoeffective dose alone) [2, 27]: > 50 µM
Silybin (isoeffective dose alone) [1, 14]: 0.1 µM
Silybin (isoeffective dose alone) [1, 15]: 0.36 µM
Silybin (isoeffective dose alone) [1, 16]: 2.2 µM
Silybin (isoeffective dose alone) [1, 17]: 7 µM
Silybin (isoeffective dose alone) [1, 18]: 35 µM
Silybin (isoeffective dose alone) [1, 19]: > 50 µM
cells in phase G2/M ([11]; 10 μM silybin, 2 days, control 10.3): 8.6%
cells in phase S ([11]; 10 μM silybin, 2 days, control 31): 20.9%
cells in phase G0/G1 ([11]; 10 μM silybin, 2 days, control 58.7): 70.5%
effect on percentage of phase G0/G1 cells ([11]; A2780 WT): mild increase
effect on percentage of phase S cells ([11]; A2780 WT): decrease in the percentage of phase S cells
antiproliferative activity [12]: antiproliferative activity
antiproliferative effect ([13]; 0.01 μM to 20 μM, FIG. 1 and Table I): dose-dependent antiproliferative effect
